Common to all, as to type: cell-based, human
One assay has as its system Day 8-erythroblasts. In words: Apoptosis of erythroblasts, Annexin V flow cytometry. The conditions noted are these: 48 hour treatment, as low as 0.5 μM. On the technique in general: In flow cytometry, cells or beads pass a laser one at a time.
Assay [1] deals with CFU-GM (Colony Forming Unit-Granulocyte Macrophage) progenitors from CD34+ cells. Kind of assay: Colony assay in methylcellulose, CFU-GM. The conditions noted are these: Homo sapiens, CFU-GM. As for the experimental part:
CD34^+cells were obtained from leukapheresis samples after mobilization of donors after informed consent in agreement with our Institute Ethic Committee (Assistance Publique des Hôpitaux de Paris) and in accordance with the Declaration of Helsinki. CD34^+cells were isolated by a positive selection using an immunomagnetic cell sorting system (AutoMacs; Miltenyi Biotec, Bergisch Gladbach, Germany). 500 to 1000 normal CD34^+cells were plated either in 1% methylcellulose assay (StemCells technologies, Vancouver, Canada) to quantify erythroid (BFU-E) and granulo-monocytic (CFU-GM) progenitors or in serum-free fibrin clot assay for quantification of MK progenitors (CFU-MK) in the absence or presence of various concentration of SAR405838 or MI-219. Cultures in methylcellulose were stimulated by addition of human recombinant growth factors: G-CSF (20 ng/mL), IL-3 (10 ng/mL) SCF (25 ng/mL, Biovitrum AB, Stockholm, Sweden), IL-6 (10 ng/mL), FLT3 (10 ng/mL) and human EPO (1 U/mL). Cultures in fibrin clot were stimulated with 10 ng/mL TPO (Kirin Brewery, Tokyo, Japan) and 25 ng/mL SCF. […] CFU-MK colonies were enumerated at day 12 after labeling by an indirect immuno-alkaline phosphatase staining technique using an anti-CD41a monoclonal antibody (MoAb; Becton Dickinson, le Pont de Claix, France; clone HIP8), as previously described.

Assay [2] has as its system p53 pathway in megakaryocytes (MKs). In words: p53 pathway proteins and transcripts in MKs (western-blot, qRT-PCR). Conditions: day 11-MKs, 1 μM, 24 hours (legend: 5 μM), compared to 1 μM MI-219 or untreated control. Here is the method:
We also explored the effects of p53 stabilization at a later stage of megakaryocytic differentiation. […] Day 7-MKs were treated with 5 μM Nutlin 3a for 24 or 48 hours, which led to an increase in p53, p21, BAX, BCL2 and BCL-XL levels, confirming a functional p53 activity (Figure 6A). […] Similar results were found with day 6-megakaryoblasts treated with two doses of SAR405838 for 72 hours (Figure 6D/6E) without any major effect on the percentage of CD41^+ cells (Figure 6F). […] As shown in Figure 6D/6E, at the dose of 0.5 μM the SAR405838 induced a 50% decreased in the number of viable cells while the apoptotic cells reached 50% of the total cells. We checked if the effect of SAR405838 on MKs could be reverted by the addition of high TPO doses. CD34^+ progenitors were cultured in serum-free medium supplemented with SCF and low dose of TPO (1 ng/mL) for 6 days. Day 6-megakaryoblasts were then treated with 1.5 μM of SAR405838 for 48 hours and various doses of TPO.
In parallel, the expression of P53, BAK, BCL2L1, NOXA, PUMA, BAX, P21 and P53 were quantified by qRT-PCR related to HPRT. C. […] (n=3). […]
PCRs were carried out in the ABI Prism GeneAmp 5700 (Perkin-Elmer) using the Power SYBR-Green PCR Master Mix (ABI) containing the specific primers. The expression levels of all genes were calculated relatively to HPRT or to PPIA housekeeping gene.
Proteins were quantified by Image J software.
A general note: Quantitative PCR measures a nucleic acid by following its amplification.

Assay [3] concerns CFU-MK (Colony Forming Unit-Megakaryocyte) progenitors from CD34+ cells. In words: Colony assay in fibrin clot, CFU-MK. The conditions noted are these: Homo sapiens. As for the experimental part: CD34^+cells were obtained from leukapheresis samples after mobilization of donors after informed consent in agreement with our Institute Ethic Committee (Assistance Publique des Hôpitaux de Paris) and in accordance with the Declaration of Helsinki. CD34^+cells were isolated by a positive selection using an immunomagnetic cell sorting system (AutoMacs; Miltenyi Biotec, Bergisch Gladbach, Germany). 500 to 1000 normal CD34^+cells were plated either in 1% methylcellulose assay (StemCells technologies, Vancouver, Canada) to quantify erythroid (BFU-E) and granulo-monocytic (CFU-GM) progenitors or in serum-free fibrin clot assay for quantification of MK progenitors (CFU-MK) in the absence or presence of various concentration of SAR405838 or MI-219. Cultures in methylcellulose were stimulated by addition of human recombinant growth factors: G-CSF (20 ng/mL), IL-3 (10 ng/mL) SCF (25 ng/mL, Biovitrum AB, Stockholm, Sweden), IL-6 (10 ng/mL), FLT3 (10 ng/mL) and human EPO (1 U/mL). Cultures in fibrin clot were stimulated with 10 ng/mL TPO (Kirin Brewery, Tokyo, Japan) and 25 ng/mL SCF. BFU-E and CFU-GM colonies were enumerated at day 14 of culture. […]

Read-outs that look alike come from different tables or passages of the source.

Procedure for Day 8-erythroblasts: For that purpose, CD34^+ progenitors were cultured in serum-free medium with SCF and EPO for 8 days. […] Day 8-erythroblasts were treated with various doses of SAR405838 or MI-219 for 48 hours. The viable cells were counted by Trypan blue exclusion and the apoptotic cells were quantified by flow cytometry analysis using annexin V/ propidium iodide labeling.
B. Day 8-erythroblasts were treated with various doses of MI-219 or SAR405838 for 48 hours and counted by trypan blue exclusion. C. Day 8-erythroblasts were treated with various doses of MI-219 or SAR405838 for 48 hours and apoptotic cells were analyzed by flow cytometry using Annexin V assay. The results represent the mean of 3 independent experiments. * represents statistical significance (*P<0.05; **P<0.01; ***P<0.001).
Apoptosis was measured by Annexin V-FITC detection kit (BD Pharmigen, San Diego, CA) and analyzed by flow cytometry on a LSRII (Becton Dickinson Mountain View, CA).

Take `CC(C)(C)C[C@@H]1N[C@@H](C(=O)N[C@H]2CC[C@H](O)CC2)[C@H](c2cccc(Cl)c2F)[C@]12C(=O)Nc1cc(Cl)ccc12` [SAR405838]: the “apoptotic cells (annexin V/propidium iodide)” value in the assay on Day 8-erythroblasts is recorded as “increased in a dose-dependent manner”. Further, the IC50 in assay [1] (72 h, CD34+ cells treated 3 days, washed, then plated in colony assay, read-out: IC50, reduction of CFU-GM progenitors) was about 2000 nM; in assay [1] (CD34+ cells seeded in methylcellulose in the presence of compound, compared to untreated control, read-out: dose inducing a 50% reduction of CFU-GM numbers), 500 to 1000 nM; in assay [3] (72 h, CD34+ cells treated 3 days, washed, then plated in colony assay, read-out: IC50, reduction of CFU-MK progenitors) it was about 2000 nM; in assay [3] (CD34+ cells seeded in fibrin clot in the presence of compound, compared to untreated control, read-out: dose inducing a 50% reduction of CFU-MK numbers), 500 to 1000 nM. Also, the “P21, BAX, PUMA and BCL2L1 transcripts (qRT-PCR related to HPRT)” value in assay [2] is recorded as “significant increase”.

(Values after paper PMC5077990, “P53 activation inhibits all types of hematopoietic progenitors and all stages of megakaryopoiesis” (Oncotarget, 2016).)
